Activity calls are given as the source filed them. No cut-off for these calls is given here. *1 amine or outer side, *2 acyl side, *3 side chain or, on linkers, in order; H or OH if unused. Where a SMILES comes first, the peptide text is derived from it. The star is where a group is joined. AMC = Cc1cc(=O)oc2cc(N*)ccc12; Suc = O=C(CCC(=O)[*:2])[*:1]; Decanoyl = CCCCCCCCCC(=O)*
Tests used:
[1] = biological target: T1, NAD-dependent protein deacetylase sirtuin-7 (Homo sapiens) (UniProt Q9NRC8); experiment: Substrate activity at human N-terminal His-tagged SIRT7 (68 to 354 residues) expressed in Escherichia coli at 0.5 uM measured after 2 hrs in presence of NAD+ and trypsin by fluorescence assay
T1 sequence (whole entry): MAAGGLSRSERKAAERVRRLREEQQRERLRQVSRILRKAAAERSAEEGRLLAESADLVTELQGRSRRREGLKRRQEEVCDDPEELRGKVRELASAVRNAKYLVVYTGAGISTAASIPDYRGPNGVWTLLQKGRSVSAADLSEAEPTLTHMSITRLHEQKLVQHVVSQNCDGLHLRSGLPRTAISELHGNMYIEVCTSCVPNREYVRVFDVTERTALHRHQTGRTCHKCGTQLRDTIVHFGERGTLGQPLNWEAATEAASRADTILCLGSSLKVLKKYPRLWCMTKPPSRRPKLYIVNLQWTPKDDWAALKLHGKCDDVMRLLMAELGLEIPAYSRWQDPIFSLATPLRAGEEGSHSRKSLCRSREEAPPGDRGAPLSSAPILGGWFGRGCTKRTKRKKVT

[2] = biological target: NAD-dependent protein deacylase sirtuin-6 (Homo sapiens) (UniProt Q8N6T7); experiment: Substrate activity at human N-terminal His-tagged SIRT6 (1 to 355 residues) expressed in Escherichia coli at 0.5 uM measured after 2 hrs in presence of NAD+ and trypsin by fluorescence assay
NAD-dependent protein deacylase sirtuin-6 (Homo sapiens), sequence (Q8N6T7 whole entry, the tested form may be a part): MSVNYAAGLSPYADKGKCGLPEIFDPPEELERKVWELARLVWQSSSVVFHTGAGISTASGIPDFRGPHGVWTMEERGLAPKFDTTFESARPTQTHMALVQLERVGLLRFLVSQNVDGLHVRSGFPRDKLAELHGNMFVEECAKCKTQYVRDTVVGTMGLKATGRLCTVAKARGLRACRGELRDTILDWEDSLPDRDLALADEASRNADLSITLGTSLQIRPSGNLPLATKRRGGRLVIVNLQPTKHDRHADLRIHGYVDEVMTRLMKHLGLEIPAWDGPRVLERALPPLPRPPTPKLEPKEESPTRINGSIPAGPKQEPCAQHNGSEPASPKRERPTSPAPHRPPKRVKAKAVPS

[3] = biological target: NAD-dependent protein deacylase sirtuin-5, mitochondrial (Homo sapiens) (UniProt Q9NXA8); experiment: Substrate activity at human N-terminal His-tagged SIRT5 (34 to 302 residues) expressed in Escherichia coli at 0.5 uM measured after 2 hrs in presence of NAD+ and trypsin by fluorescence assay
NAD-dependent protein deacylase sirtuin-5, mitochondrial (Homo sapiens), sequence (Q9NXA8 37-310 limits assumed): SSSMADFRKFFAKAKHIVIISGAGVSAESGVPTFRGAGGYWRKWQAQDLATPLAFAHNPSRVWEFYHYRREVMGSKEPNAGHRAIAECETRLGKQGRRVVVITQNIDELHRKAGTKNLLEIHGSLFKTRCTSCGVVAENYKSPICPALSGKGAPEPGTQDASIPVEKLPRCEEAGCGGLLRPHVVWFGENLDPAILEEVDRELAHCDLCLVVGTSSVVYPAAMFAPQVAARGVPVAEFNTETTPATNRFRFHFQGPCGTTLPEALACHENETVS

[4] = biological target: T2, NAD-dependent protein deacetylase sirtuin-3, mitochondrial (Homo sapiens) (UniProt Q9NTG7); experiment: Substrate activity at human N-terminal His-tagged SIRT3 (122 to 391 residues) expressed in Escherichia coli at 0.5 uM measured after 2 hrs in presence of NAD+ and trypsin by fluorescence assay
T2 sequence (whole entry): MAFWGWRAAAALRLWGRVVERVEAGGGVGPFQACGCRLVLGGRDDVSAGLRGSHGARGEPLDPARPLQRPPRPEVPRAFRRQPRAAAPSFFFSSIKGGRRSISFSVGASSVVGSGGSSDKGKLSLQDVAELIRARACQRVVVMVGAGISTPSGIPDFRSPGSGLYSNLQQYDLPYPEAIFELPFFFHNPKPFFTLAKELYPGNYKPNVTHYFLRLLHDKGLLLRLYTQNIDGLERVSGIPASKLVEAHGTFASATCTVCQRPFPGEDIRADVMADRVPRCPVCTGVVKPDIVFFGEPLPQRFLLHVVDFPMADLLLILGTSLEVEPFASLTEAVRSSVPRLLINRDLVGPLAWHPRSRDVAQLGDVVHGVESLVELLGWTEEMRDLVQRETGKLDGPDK

[5] = biological target: T3, NAD-dependent protein deacetylase sirtuin-2 (Homo sapiens) (UniProt Q8IXJ6); experiment: Substrate activity at human N-terminal His-tagged SIRT2 (56 to 356 residues) expressed in Escherichia coli at 0.5 uM measured after 2 hrs in presence of NAD+ and trypsin by fluorescence assay
T3 sequence (whole entry): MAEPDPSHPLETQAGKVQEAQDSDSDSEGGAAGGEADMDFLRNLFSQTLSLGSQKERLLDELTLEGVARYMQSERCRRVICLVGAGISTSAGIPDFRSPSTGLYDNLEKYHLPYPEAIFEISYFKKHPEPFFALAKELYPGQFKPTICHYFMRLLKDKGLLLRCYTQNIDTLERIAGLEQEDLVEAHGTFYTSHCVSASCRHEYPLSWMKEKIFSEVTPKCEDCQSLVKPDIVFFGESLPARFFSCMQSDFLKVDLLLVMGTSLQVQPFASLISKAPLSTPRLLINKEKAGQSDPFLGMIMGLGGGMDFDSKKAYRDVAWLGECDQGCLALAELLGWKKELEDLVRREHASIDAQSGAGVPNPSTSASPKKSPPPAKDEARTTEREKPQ

[6] = biological target: T4, NAD-dependent protein deacetylase sirtuin-1 (Homo sapiens) (UniProt Q96EB6); experiment: Substrate activity at human N-terminal His-tagged SIRT1 (183 to 664 residues) expressed in Escherichia coli at 0.5 uM measured after 2 hrs in presence of NAD+ and trypsin by fluorescence assay
T4 sequence (whole entry): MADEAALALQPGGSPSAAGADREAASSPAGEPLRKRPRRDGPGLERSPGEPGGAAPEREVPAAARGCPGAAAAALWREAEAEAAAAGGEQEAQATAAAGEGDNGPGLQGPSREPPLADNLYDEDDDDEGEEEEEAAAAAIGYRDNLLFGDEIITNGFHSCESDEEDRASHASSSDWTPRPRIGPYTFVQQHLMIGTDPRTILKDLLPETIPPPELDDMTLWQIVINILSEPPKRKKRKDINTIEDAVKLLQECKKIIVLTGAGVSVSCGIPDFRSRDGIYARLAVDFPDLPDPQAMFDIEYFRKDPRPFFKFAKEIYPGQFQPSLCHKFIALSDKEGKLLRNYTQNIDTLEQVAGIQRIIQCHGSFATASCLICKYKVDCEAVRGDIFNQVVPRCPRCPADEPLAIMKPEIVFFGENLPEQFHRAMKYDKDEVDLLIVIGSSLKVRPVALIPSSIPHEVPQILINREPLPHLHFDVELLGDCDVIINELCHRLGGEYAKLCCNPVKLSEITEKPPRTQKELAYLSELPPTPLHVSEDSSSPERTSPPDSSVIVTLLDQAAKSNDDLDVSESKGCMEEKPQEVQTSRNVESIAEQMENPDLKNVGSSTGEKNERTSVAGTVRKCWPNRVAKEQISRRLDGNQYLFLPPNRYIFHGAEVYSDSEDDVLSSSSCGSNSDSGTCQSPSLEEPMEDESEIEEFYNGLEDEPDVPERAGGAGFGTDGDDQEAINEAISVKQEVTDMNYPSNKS

[7] = biological target: T1, NAD-dependent protein deacetylase sirtuin-7 (Homo sapiens); experiment: Substrate activity at human N-terminal His-tagged SIRT7 (68 to 354 residues) expressed in Escherichia coli at 5 uM measured after 2 hrs in presence of NAD+ and trypsin by fluorescence assay
[8] = biological target: NAD-dependent protein deacylase sirtuin-6 (Homo sapiens) (UniProt Q8N6T7); experiment: Substrate activity at human N-terminal His-tagged SIRT6 (1 to 355 residues) expressed in Escherichia coli at 5 uM measured after 2 hrs in presence of NAD+ and trypsin by fluorescence assay
[9] = biological target: NAD-dependent protein deacylase sirtuin-5, mitochondrial (Homo sapiens) (UniProt Q9NXA8); experiment: Substrate activity at human N-terminal His-tagged SIRT5 (34 to 302 residues) expressed in Escherichia coli at 5 uM measured after 2 hrs in presence of NAD+ and trypsin by fluorescence assay
[10] = biological target: T2, NAD-dependent protein deacetylase sirtuin-3, mitochondrial (Homo sapiens); experiment: Substrate activity at human N-terminal His-tagged SIRT3 (122 to 391 residues) expressed in Escherichia coli at 5 uM measured after 2 hrs in presence of NAD+ and trypsin by fluorescence assay
[11] = biological target: T3, NAD-dependent protein deacetylase sirtuin-2 (Homo sapiens); experiment: Substrate activity at human N-terminal His-tagged SIRT2 (56 to 356 residues) expressed in Escherichia coli at 5 uM measured after 2 hrs in presence of NAD+ and trypsin by fluorescence assay
[12] = biological target: T4, NAD-dependent protein deacetylase sirtuin-1 (Homo sapiens); experiment: Substrate activity at human N-terminal His-tagged SIRT1 (183 to 664 residues) expressed in Escherichia coli at 5 uM measured after 2 hrs in presence of NAD+ and trypsin by fluorescence assay
[13] = biological target: T1, NAD-dependent protein deacetylase sirtuin-7 (Homo sapiens); experiment: Substrate activity at human N-terminal His-tagged SIRT7 (68 to 354 residues) expressed in Escherichia coli at 50 uM measured after 2 hrs in presence of NAD+ and trypsin by fluorescence assay
[14] = biological target: NAD-dependent protein deacylase sirtuin-6 (Homo sapiens) (UniProt Q8N6T7); experiment: Substrate activity at human N-terminal His-tagged SIRT6 (1 to 355 residues) expressed in Escherichia coli at 50 uM measured after 2 hrs in presence of NAD+ and trypsin by fluorescence assay
[15] = biological target: NAD-dependent protein deacylase sirtuin-5, mitochondrial (Homo sapiens) (UniProt Q9NXA8); experiment: Substrate activity at human N-terminal His-tagged SIRT5 (34 to 302 residues) expressed in Escherichia coli at 50 uM measured after 2 hrs in presence of NAD+ and trypsin by fluorescence assay
[16] = biological target: T2, NAD-dependent protein deacetylase sirtuin-3, mitochondrial (Homo sapiens); experiment: Substrate activity at human N-terminal His-tagged SIRT3 (122 to 391 residues) expressed in Escherichia coli at 50 uM measured after 2 hrs in presence of NAD+ and trypsin by fluorescence assay
[17] = biological target: T3, NAD-dependent protein deacetylase sirtuin-2 (Homo sapiens); experiment: Substrate activity at human N-terminal His-tagged SIRT2 (56 to 356 residues) expressed in Escherichia coli at 50 uM measured after 2 hrs in presence of NAD+ and trypsin by fluorescence assay
[18] = biological target: T4, NAD-dependent protein deacetylase sirtuin-1 (Homo sapiens); experiment: Substrate activity at human N-terminal His-tagged SIRT1 (183 to 664 residues) expressed in Escherichia coli at 50 uM measured after 2 hrs in presence of NAD+ and trypsin by fluorescence assay
[19] = biological target: NAD-dependent protein deacylase sirtuin-5, mitochondrial (Homo sapiens) (UniProt Q9NXA8); experiment: Substrate activity at human N-terminal His-tagged SIRT5 (34 to 302 residues) expressed in Escherichia coli at 5 uM measured after 1 hr in presence of NAD+ and trypsin by fluorescence assay

Activity [1]	Activity [2]	Activity [3]	Activity [4]	Activity [5]	Activity [6]	Activity [7]	Activity [8]	Activity [9]	Activity [10]	Activity [11]	Activity [12]	Activity [13]	Activity [14]	Activity [15]	Activity [16]	Activity [17]	Activity [18]	Activity [19]	Structure (SMILES)
0.28 RFU	0.41 RFU	1.15 RFU	0.49 RFU	0.16 RFU	0.16 RFU	1.36 RFU	0.32 RFU	8.98 RFU	0.55 RFU	0.21 RFU	0.36 RFU	0.51 RFU	0.51 RFU	0.71 RFU	0.89 RFU	1.03 RFU	0.69 RFU	Active	CC(=O)N[C@@H](Cc1cnc[nH]1)C(=O)N[C@@H](Cc1ccccc1)C(=O)N[C@@H](CO)C(=O)N[C@@H](CCCCNC(=O)CCC(=O)O)C(=O)Nc1ccc2c(C)cc(=O)oc2c1 (Ac-HFSK(Suc)-{AMC})
0.39 RFU	0.5 RFU	0.37 RFU	0.28 RFU	0.37 RFU	0.37 RFU	0.33 RFU	0.38 RFU	0.3 RFU	0.38 RFU	0.73 RFU	1.13 RFU	0.43 RFU	0.43 RFU	0.61 RFU	1.61 RFU	2.64 RFU	5.22 RFU	–	CC(=O)NCCCC[C@H](NC(=O)[C@H](CCCCN)NC(=O)[C@H](Cc1cnc[nH]1)NC(=O)[C@H](CCCNC(=N)N)NC(C)=O)C(=O)Nc1ccc2c(C)cc(=O)oc2c1 (Ac-RHKK(Ac)-{AMC})
0.31 RFU	0.5 RFU	0.24 RFU	0.54 RFU	0.52 RFU	0.52 RFU	1.09 RFU	0.39 RFU	0.31 RFU	2.28 RFU	3.84 RFU	6.39 RFU	0.97 RFU	0.97 RFU	1.29 RFU	9.82 RFU	25.2 RFU	33 RFU	–	CC(=O)NCCCC[C@H](NC(=O)[C@H](CC(C)C)NC(=O)[C@H](CCCCN)NC(=O)[C@H](Cc1ccc(O)cc1)NC(C)=O)C(=O)Nc1ccc2c(C)cc(=O)oc2c1 (Ac-YKLK(Ac)-{AMC})

The remaining lines, values behind:

Structure (SMILES)	Activity [1]	Activity [2]	Activity [3]	Activity [4]	Activity [5]	Activity [6]	Activity [7]	Activity [8]	Activity [9]	Activity [10]	Activity [11]	Activity [12]	Activity [13]	Activity [14]	Activity [15]	Activity [16]	Activity [17]	Activity [18]	Activity [19]
CC[C@H](C)[C@H](NC(=O)[C@H](CC(C)C)NC(=O)[C@H](CCCNC(=N)N)NC(C)=O)C(=O)N[C@@H](CCCCNC(C)=O)C(=O)Nc1ccc2c(C)cc(=O)oc2c1 (Ac-RLIK(Ac)-{AMC})	0.27 RFU	0.45 RFU	0.22 RFU	2.66 RFU	0.66 RFU	0.66 RFU	3.2 RFU	0.32 RFU	0.27 RFU	14.2 RFU	4.96 RFU	18.3 RFU	0.71 RFU	0.71 RFU	0.98 RFU	28.2 RFU	32.5 RFU	24.1 RFU	–
CC(=O)NCCCC[C@H](NC(=O)[C@H](CCCNC(=N)N)NC(=O)[C@H](C)NC(=O)[C@@H](NC(C)=O)[C@@H](C)O)C(=O)Nc1ccc2c(C)cc(=O)oc2c1 (Ac-TARK(Ac)-{AMC})	0.39 RFU	0.35 RFU	0.26 RFU	0.31 RFU	0.2 RFU	0.2 RFU	0.28 RFU	0.34 RFU	0.27 RFU	0.38 RFU	0.22 RFU	0.33 RFU	0.43 RFU	0.43 RFU	0.7 RFU	0.88 RFU	0.48 RFU	0.97 RFU	–
CCCCCCCCCC(=O)NCCCC[C@H](NC(=O)[C@H](CCCNC(=N)N)NC(=O)[C@H](C)NC(=O)[C@@H](NC(C)=O)[C@@H](C)O)C(=O)Nc1ccc2c(C)cc(=O)oc2c1 (Ac-TARK(Decanoyl)-{AMC})	0.35 RFU	0.48 RFU	0.26 RFU	0.26 RFU	0.25 RFU	0.25 RFU	0.35 RFU	0.38 RFU	0.28 RFU	0.4 RFU	0.65 RFU	0.46 RFU	0.79 RFU	0.79 RFU	1.38 RFU	1.08 RFU	1.94 RFU	1.43 RFU	–

Reference: ChEMBL document CHEMBL4680222, “Sensitive fluorogenic substrates for sirtuin deacylase inhibitor discovery” (Eur J Med Chem, 2020)
